# Data taken from patent publication US20260356819A1, “OXOISOINDOLINYL-SUBSTITUTED […] DERIVATIVE AND USE THEREOF” (GLUETACS THERAPEUTICS (SHANGHAI) CO., LTD., priority 2023, published 2026).
# Assays:
# MM.1S cells = assay: Inhibition of proliferation of multiple myeloma cells MM.1S (cell viability assay, 96 h); format: cell-based, human; settings: read-out: inhibitory activity (IC50) against tumor cells proliferation, MM.1S
# MGC803 cells = assay: Inhibition of proliferation of gastric cancer cells MGC803 (cell viability assay, 96 h); format: cell-based, human; settings: read-out: inhibitory activity (IC50) against tumor cells proliferation, MGC803
# Procedure: (§1) The tumor cells used herein were cultured in a cell culture medium listed in table 2 at 37 °C in an incubator with 5% CO2. Prior to experimentation, all cell lines used were correctly identified by STR profiling, and tested negative for Mycoplasma contamination using a Mycoplasma detection kit through routine screenings.
# (§2) The IC50 values of the compounds of the present disclosure (including the compounds in Table 1, and Examples 1-498) were determined using the CellTiter-Meiluncell Luminescent Cell Viability Assay Kit from Dalian Meilun Biotech Co., Ltd. The detailed procedure is as follows: Tumor cells were seeded in 96-well cell culture plates at the densities specified in Table 3. On the following day, the test compounds of the present disclosure were subjected to serial dilution. […] Subsequently, 0.5 μL of the test compound dilution was transferred into the 96-well plate containing the cells, with each well containing 100 μL of cell culture medium. […] Into the 96-well plate, the diluted test compounds and corresponding detection reagents were added, resulting in final test compound concentrations of 500 nM and 10 nM, respectively. The experimental procedure is described below using the diluted 2 μM test compound as an example.
# (§3) 0.5 μL of the aforementioned diluted compound of the present disclosure (including the compounds in Table 1, and Examples 1-498) was added to the seeded cells in 100 μL of medium, yielding a final test compound concentration of 10 nM. After the cells were treated with the compounds of the present disclosure for a specified period, the cell viability assay reagent was added to the culture medium according to the kit's instructions to determine cell viability. […] All controls were treated using the same procedure as the compounds of the present disclosure. The growth inhibition curves for the compounds of the present disclosure were plotted using Prism GraphPad software, and the IC50 values were calculated therefrom.
# WEE1 = target: T1, WEE1 (Homo sapiens, UniProt P30291+Q96SW2); assay: Western blot degradation of WEE1 in hPBMCs (24 h); format: cell-based; settings: compounds at 50 nM and 500 nM
# T1 construct: The supernatant was aspirated as the extracted total cell protein; endogenous in cells; host or cells: human peripheral blood mononuclear cells (hPBMCs)
# T1 sequence (P30291 whole entry): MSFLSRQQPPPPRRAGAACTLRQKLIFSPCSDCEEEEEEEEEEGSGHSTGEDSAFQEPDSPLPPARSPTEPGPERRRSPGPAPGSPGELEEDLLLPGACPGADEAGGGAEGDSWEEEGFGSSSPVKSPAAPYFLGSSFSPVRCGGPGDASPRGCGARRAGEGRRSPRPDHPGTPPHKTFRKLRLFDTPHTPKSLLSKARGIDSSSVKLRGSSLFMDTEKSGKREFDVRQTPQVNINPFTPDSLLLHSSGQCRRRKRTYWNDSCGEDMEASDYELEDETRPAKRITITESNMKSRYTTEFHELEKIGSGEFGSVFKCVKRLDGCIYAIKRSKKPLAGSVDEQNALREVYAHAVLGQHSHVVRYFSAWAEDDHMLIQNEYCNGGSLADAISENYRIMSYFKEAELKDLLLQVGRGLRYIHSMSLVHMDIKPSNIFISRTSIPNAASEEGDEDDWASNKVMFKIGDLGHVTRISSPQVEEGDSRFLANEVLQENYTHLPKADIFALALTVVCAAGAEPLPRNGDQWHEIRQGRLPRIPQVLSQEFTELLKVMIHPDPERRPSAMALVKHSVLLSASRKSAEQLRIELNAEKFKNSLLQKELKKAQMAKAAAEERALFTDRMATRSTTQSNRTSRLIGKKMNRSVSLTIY
# T1 sequence (Q96SW2 whole entry): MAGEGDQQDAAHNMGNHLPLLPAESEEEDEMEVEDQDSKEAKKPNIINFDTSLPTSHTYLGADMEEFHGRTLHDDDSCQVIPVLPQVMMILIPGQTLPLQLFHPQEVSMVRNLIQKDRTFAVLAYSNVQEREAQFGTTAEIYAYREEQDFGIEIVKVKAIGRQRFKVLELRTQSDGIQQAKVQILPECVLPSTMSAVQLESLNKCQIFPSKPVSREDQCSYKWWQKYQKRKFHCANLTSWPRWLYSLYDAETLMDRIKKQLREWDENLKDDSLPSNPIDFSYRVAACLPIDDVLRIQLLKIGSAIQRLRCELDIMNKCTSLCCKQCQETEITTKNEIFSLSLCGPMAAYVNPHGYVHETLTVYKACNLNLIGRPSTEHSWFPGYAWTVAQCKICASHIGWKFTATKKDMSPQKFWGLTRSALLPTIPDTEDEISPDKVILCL
# T1 sequence (Q16531 whole entry partner): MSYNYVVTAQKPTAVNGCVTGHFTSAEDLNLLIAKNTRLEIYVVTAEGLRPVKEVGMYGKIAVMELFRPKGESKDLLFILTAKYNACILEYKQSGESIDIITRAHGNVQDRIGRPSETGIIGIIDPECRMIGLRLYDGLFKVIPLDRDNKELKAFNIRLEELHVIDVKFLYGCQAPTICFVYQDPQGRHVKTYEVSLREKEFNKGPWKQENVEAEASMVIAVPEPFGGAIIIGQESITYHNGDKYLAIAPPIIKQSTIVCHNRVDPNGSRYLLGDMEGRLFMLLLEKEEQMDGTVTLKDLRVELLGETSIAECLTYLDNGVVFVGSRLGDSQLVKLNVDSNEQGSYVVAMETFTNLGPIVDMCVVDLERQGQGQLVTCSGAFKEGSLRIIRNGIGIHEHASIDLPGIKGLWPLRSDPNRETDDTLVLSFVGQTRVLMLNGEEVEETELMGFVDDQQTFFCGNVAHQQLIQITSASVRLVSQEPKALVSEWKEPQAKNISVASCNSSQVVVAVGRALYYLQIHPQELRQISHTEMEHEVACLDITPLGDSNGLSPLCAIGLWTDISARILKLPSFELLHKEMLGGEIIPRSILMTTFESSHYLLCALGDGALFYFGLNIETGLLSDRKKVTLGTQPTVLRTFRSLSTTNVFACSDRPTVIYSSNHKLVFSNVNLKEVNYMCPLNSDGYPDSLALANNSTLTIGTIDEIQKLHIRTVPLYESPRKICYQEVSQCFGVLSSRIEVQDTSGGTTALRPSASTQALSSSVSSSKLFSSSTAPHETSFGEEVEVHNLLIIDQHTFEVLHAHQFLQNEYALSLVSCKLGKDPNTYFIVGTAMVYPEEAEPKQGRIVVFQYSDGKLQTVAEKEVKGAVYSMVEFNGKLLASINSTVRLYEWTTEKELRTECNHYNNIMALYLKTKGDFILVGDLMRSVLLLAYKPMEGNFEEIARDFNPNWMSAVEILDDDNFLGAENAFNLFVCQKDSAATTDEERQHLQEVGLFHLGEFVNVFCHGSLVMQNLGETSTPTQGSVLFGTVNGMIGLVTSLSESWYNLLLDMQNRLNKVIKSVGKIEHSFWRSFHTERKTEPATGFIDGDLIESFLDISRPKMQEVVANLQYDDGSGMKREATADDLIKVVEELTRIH
# Summary of the method: (§4)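 Thawed human PBMCs, 1×10^6 cells/mL; cpd 50 nM or 500 nM, 24 h; RIPA lysis, BCA, SDS-PAGE, NC transfer, immunoblot. Readout: grayscale/internal control → % remaining; degradation = 1 − remaining.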
# IKZF1 = target: T2, IKZF1 (Homo sapiens, UniProt Q13422+Q96SW2); assay: Western blot degradation of IKZF1 in hPBMCs (24 h); format: cell-based; settings: compounds at 50 nM and 500 nM
# T2 construct: The supernatant was aspirated as the extracted total cell protein; endogenous in cells; host or cells: human peripheral blood mononuclear cells (hPBMCs)
# T2 sequence (Q13422 whole entry): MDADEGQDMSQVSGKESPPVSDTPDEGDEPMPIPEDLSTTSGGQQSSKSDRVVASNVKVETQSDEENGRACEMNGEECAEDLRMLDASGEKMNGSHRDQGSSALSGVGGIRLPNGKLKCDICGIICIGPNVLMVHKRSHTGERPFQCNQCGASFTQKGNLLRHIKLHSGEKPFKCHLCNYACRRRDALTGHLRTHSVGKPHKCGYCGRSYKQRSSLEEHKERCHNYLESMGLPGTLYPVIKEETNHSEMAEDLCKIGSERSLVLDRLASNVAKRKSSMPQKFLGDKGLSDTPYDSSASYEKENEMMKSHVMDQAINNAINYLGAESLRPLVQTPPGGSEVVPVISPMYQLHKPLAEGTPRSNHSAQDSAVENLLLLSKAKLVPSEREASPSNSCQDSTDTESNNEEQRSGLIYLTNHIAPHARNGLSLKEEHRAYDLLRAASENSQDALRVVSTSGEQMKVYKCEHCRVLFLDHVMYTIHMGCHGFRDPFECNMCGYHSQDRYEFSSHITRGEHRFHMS
# T2 sequence (Q96SW2 whole entry): as the sequence (Q96SW2 whole entry) above
# T2 sequence (Q16531 whole entry partner): as the sequence (Q16531 whole entry partner) above
# Summary of the method: as §4
# IKZF2 = target: T3, IKZF2 (Homo sapiens, UniProt Q96SW2+Q9UKS7); assay: Western blot degradation of IKZF2 in hPBMCs (24 h); format: cell-based; settings: compounds at 50 nM and 500 nM
# T3 construct: The supernatant was aspirated as the extracted total cell protein; endogenous in cells; host or cells: human peripheral blood mononuclear cells (hPBMCs)
# T3 sequence (Q9UKS7 whole entry): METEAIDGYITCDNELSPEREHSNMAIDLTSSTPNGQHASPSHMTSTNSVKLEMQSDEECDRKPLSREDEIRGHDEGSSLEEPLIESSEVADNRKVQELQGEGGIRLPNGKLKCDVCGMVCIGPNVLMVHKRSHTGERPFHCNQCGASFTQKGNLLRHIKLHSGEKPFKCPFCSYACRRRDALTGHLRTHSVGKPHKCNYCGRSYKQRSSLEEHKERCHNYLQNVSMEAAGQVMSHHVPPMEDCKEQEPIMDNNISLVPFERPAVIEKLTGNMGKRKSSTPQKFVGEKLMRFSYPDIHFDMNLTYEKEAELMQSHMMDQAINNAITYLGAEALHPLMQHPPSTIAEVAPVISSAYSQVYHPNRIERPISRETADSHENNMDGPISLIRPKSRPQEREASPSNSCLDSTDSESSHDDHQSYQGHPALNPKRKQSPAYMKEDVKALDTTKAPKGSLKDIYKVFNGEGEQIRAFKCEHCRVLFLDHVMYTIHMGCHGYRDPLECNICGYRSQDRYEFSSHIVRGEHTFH
# T3 sequence (Q96SW2 whole entry): as the sequence (Q96SW2 whole entry) above
# T3 sequence (Q16531 whole entry partner): as the sequence (Q16531 whole entry partner) above
# Summary of the method: as §4
# IKZF3 = target: T4, IKZF3 (Homo sapiens, UniProt Q96SW2+Q9UKT9); assay: Western blot degradation of IKZF3 in hPBMCs (24 h); format: cell-based; settings: compounds at 50 nM and 500 nM
# T4 construct: The supernatant was aspirated as the extracted total cell protein; endogenous in cells; host or cells: human peripheral blood mononuclear cells (hPBMCs)
# T4 sequence (Q9UKT9 whole entry): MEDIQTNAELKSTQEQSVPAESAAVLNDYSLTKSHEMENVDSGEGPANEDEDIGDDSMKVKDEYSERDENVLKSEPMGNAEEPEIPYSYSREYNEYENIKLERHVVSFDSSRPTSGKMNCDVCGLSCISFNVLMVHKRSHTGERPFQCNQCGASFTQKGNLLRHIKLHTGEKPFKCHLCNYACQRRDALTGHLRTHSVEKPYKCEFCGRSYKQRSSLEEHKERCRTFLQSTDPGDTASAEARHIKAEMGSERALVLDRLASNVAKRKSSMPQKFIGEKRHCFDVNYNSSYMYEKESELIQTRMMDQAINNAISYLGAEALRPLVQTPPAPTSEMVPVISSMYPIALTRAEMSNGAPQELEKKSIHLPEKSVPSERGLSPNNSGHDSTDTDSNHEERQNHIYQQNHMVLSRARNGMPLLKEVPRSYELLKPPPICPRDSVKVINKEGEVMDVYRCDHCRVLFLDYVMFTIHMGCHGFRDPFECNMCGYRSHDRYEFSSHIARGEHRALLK
# T4 sequence (Q96SW2 whole entry): as the sequence (Q96SW2 whole entry) above
# T4 sequence (Q16531 whole entry partner): as the sequence (Q16531 whole entry partner) above
# Summary of the method: as §4
# CK1α = target: T5, CK1α (Homo sapiens, UniProt P48729+Q96SW2); assay: Western blot degradation of CK1α in hPBMCs (24 h); format: cell-based; settings: compounds at 50 nM and 500 nM
# T5 construct: The supernatant was aspirated as the extracted total cell protein; endogenous in cells; host or cells: human peripheral blood mononuclear cells (hPBMCs)
# T5 sequence (P48729 whole entry): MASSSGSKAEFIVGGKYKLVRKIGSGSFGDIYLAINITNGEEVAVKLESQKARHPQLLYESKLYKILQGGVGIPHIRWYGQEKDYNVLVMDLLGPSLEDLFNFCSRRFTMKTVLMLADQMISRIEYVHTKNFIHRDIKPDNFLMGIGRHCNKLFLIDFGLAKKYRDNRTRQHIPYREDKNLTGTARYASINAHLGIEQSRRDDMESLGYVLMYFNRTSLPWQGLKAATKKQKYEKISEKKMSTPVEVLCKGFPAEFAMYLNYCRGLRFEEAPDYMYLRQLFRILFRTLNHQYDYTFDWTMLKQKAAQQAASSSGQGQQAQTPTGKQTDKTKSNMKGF
# T5 sequence (Q96SW2 whole entry): as the sequence (Q96SW2 whole entry) above
# T5 sequence (Q16531 whole entry partner): as the sequence (Q16531 whole entry partner) above
# Summary of the method: as §4
# GSPT1 = target: T6, GSPT1 (Homo sapiens, UniProt P15170+Q96SW2); assay: Western blot degradation of GSPT1 in hPBMCs (24 h); format: cell-based; settings: compounds at 50 nM and 500 nM
# T6 construct: The supernatant was aspirated as the extracted total cell protein; endogenous in cells; host or cells: human peripheral blood mononuclear cells (hPBMCs)
# Summary of the method: as §4
# Jurkat cells = assay: Inhibition of proliferation of T lymphocytic leukemia cells Jurkat (cell viability assay, 96 h); format: cell-based, human; settings: read-out: inhibitory activity (IC50) against tumor cells proliferation, Jurkat
# Procedure: as §1, §2, §3
# MV-4-11 cells = assay: Inhibition of proliferation of myeloid monocytic leukemia cells MV-4-11 (cell viability assay, 96 h); format: cell-based, human; settings: read-out: inhibitory activity (IC50) against tumor cells proliferation, MV-4-11
# Procedure: as §1, §2, §3
SMILES,IC50 (MM.1S cells) [nM],IC50 (MGC803 cells) [nM],WEE1 substrate protein remaining % (WEE1),IKZF1 substrate protein remaining % (IKZF1),IKZF2 substrate protein remaining % (IKZF2),IKZF3 substrate protein remaining % (IKZF3),CK1α substrate protein remaining % (CK1α),GSPT1 substrate protein remaining % (GSPT1),IC50 (Jurkat cells) [nM],IC50 (MV-4-11 cells) [nM]
"O=C1CCN(N2Cc3cc(CN4CCN(c5cccc(Cl)c5Cl)CC4)ccc3C2=O)C(=O)N1 [GT-04853, 1-(5-((4-(2,3-dichlorophenyl)piperazin-1-yl)methyl)-1-oxoisoindolin-2-yl)dihydropyrimidine-2,4(1H,3H)-dione]",100 to 300,500 to 1000,A (0% ≤ substrate protein remaining % ≤80%),A (0% ≤ substrate protein remaining % ≤80%),A (0% ≤ substrate protein remaining % ≤80%),B (80%< substrate protein remaining % ≤100%),B (80%< substrate protein remaining % ≤100%),A (0% ≤ substrate protein remaining % ≤80%),–,–
"O=C1CCN(N2Cc3cc(CN4CCN(c5cccc6sccc56)CC4)ccc3C2=O)C(=O)N1 [GT-04866, 1-(5-((4-(benzo[b]thiophen-4-yl)piperazin-1-yl)methyl)-1-oxoisoindolin-2-yl)dihydropyrimidine-2,4(1H,3H)-dione]",100 to 300,300 to 500,A (0% ≤ substrate protein remaining % ≤80%),A (0% ≤ substrate protein remaining % ≤80%),B (80%< substrate protein remaining % ≤100%),B (80%< substrate protein remaining % ≤100%),B (80%< substrate protein remaining % ≤100%),A (0% ≤ substrate protein remaining % ≤80%),300 to 500,–
"O=C1CCN(N2Cc3cc(CN4CC=C(c5cccs5)CC4)ccc3C2=O)C(=O)N1 [GT-04868, 1-(1-oxo-5-((4-(thiophen-2-yl)-3,6-dihydropyridin-1(2H)-yl)methyl)isoindolin-2-yl)dihydropyrimidine-2,4(1H,3H)-dione]",100 to 300,300 to 500,A (0% ≤ substrate protein remaining % ≤80%),A (0% ≤ substrate protein remaining % ≤80%),B (80%< substrate protein remaining % ≤100%),B (80%< substrate protein remaining % ≤100%),A (0% ≤ substrate protein remaining % ≤80%),A (0% ≤ substrate protein remaining % ≤80%),300 to 500,–
"Cc1ccc(C2=CCN(Cc3ccc4c(c3)CN(N3CCC(=O)NC3=O)C4=O)CC2)s1 [GT-04869, 1-(5-((4-(5-methylthiophen-2-yl)-3,6-dihydropyridin-1(2H)-yl)methyl)-1-oxoisoindolin-2-yl)dihydropyrimidine-2,4(1H,3H)-dione]",50 to 100,300 to 500,A (0% ≤ substrate protein remaining % ≤80%),A (0% ≤ substrate protein remaining % ≤80%),A (0% ≤ substrate protein remaining % ≤80%),A (0% ≤ substrate protein remaining % ≤80%),B (80%< substrate protein remaining % ≤100%),A (0% ≤ substrate protein remaining % ≤80%),300 to 500,–
"Cc1ccsc1C1=CCN(Cc2ccc3c(c2)CN(N2CCC(=O)NC2=O)C3=O)CC1 [GT-04870, 1-(5-((4-(3-methylthiophen-2-yl)-3,6-dihydropyridin-1(2H)-yl)methyl)-1-oxoisoindolin-2-yl)dihydropyrimidine-2,4(1H,3H)-dione]",50 to 100,100 to 300,A (0% ≤ substrate protein remaining % ≤80%),A (0% ≤ substrate protein remaining % ≤80%),A (0% ≤ substrate protein remaining % ≤80%),A (0% ≤ substrate protein remaining % ≤80%),B (80%< substrate protein remaining % ≤100%),A (0% ≤ substrate protein remaining % ≤80%),100 to 300,–
"O=C1CCN(N2Cc3cc(CN4CCN(C(c5ccccc5)c5ccccn5)CC4)ccc3C2=O)C(=O)N1 (stereo not drawn) [GT-04890, 1-(1-oxo-5-((4-(phenyl(pyridin-2-yl)methyl)piperazin-1-yl)methyl)isoindolin-2-yl)dihydropyrimidine-2,4(1H,3H)-dione]",100 to 300,500 to 1000,B (80%< substrate protein remaining % ≤100%),A (0% ≤ substrate protein remaining % ≤80%),A (0% ≤ substrate protein remaining % ≤80%),B (80%< substrate protein remaining % ≤100%),B (80%< substrate protein remaining % ≤100%),A (0% ≤ substrate protein remaining % ≤80%),–,–
"Cc1cccc(N2CCN(Cc3ccc4c(c3)CN(N3CCC(=O)NC3=O)C4=O)CC2)c1 [GT-06770, 1-(1-oxo-5-((4-(m-tolyl)piperazin-1-yl)methyl)isoindolin-2-yl)dihydropyrimidine-2,4(1H,3H)-dione]",–,–,A (0% ≤ substrate protein remaining % ≤80%),A (0% ≤ substrate protein remaining % ≤80%),A (0% ≤ substrate protein remaining % ≤80%),A (0% ≤ substrate protein remaining % ≤80%),A (0% ≤ substrate protein remaining % ≤80%),A (0% ≤ substrate protein remaining % ≤80%),500 to 1000,500 to 1000
"O=C1CCN(N2Cc3cc(CN4CCN(c5cc(Cl)cc(Cl)c5)CC4)ccc3C2=O)C(=O)N1 [GT-06776, 1-(5-((4-(3,5-dichlorophenyl)piperazin-1-yl)methyl)-1-oxoisoindolin-2-yl)dihydropyrimidine-2,4(1H,3H)-dione]",–,–,A (0% ≤ substrate protein remaining % ≤80%),B (80%< substrate protein remaining % ≤100%),A (0% ≤ substrate protein remaining % ≤80%),B (80%< substrate protein remaining % ≤100%),A (0% ≤ substrate protein remaining % ≤80%),A (0% ≤ substrate protein remaining % ≤80%),500 to 1000,100 to 300
"O=C1CCN(N2Cc3cc(CN4CCC(c5cccc(Cl)c5Cl)CC4)ccc3C2=O)C(=O)N1 [GT-06893, 1-(5-((4-(2,3-dichlorophenyl)piperidin-1-yl)methyl)-1-oxoisoindolin-2-yl)dihydropyrimidine-2,4(1H,3H)-dione]",–,–,B (80%< substrate protein remaining % ≤100%),A (0% ≤ substrate protein remaining % ≤80%),A (0% ≤ substrate protein remaining % ≤80%),B (80%< substrate protein remaining % ≤100%),B (80%< substrate protein remaining % ≤100%),A (0% ≤ substrate protein remaining % ≤80%),500 to 1000,100 to 300
"O=C1CCN(N2Cc3cc(CN4CCC(c5cccc(F)c5Cl)CC4)ccc3C2=O)C(=O)N1 [GT-06894, 1-(5-((4-(2-chloro-3-fluorophenyl)piperidin-1-yl)methyl)-1-oxoisoindolin-2-yl)dihydropyrimidine-2,4(1H,3H)-dione]",–,–,B (80%< substrate protein remaining % ≤100%),A (0% ≤ substrate protein remaining % ≤80%),B (80%< substrate protein remaining % ≤100%),B (80%< substrate protein remaining % ≤100%),B (80%< substrate protein remaining % ≤100%),A (0% ≤ substrate protein remaining % ≤80%),500 to 1000,300 to 500
